According to patent US20070149456A1, “Epithelial sodium channel inhibiting agents and uses therefor” (University of Pittsburgh, priority 2005, published 2007):
“Also recorded” adds a separate entry of the source.

Target: T1, wild-type ENaC (Mus musculus, UniProt Q61180+Q9WU38+Q9WU39, DEL206-231)
T1 construct: expressed in transfected cells; host or cells: Xenopus laevis oocytes (cRNA injection)
T1 sequence (Q61180 with tags, fused parts or gaps DEL206-231): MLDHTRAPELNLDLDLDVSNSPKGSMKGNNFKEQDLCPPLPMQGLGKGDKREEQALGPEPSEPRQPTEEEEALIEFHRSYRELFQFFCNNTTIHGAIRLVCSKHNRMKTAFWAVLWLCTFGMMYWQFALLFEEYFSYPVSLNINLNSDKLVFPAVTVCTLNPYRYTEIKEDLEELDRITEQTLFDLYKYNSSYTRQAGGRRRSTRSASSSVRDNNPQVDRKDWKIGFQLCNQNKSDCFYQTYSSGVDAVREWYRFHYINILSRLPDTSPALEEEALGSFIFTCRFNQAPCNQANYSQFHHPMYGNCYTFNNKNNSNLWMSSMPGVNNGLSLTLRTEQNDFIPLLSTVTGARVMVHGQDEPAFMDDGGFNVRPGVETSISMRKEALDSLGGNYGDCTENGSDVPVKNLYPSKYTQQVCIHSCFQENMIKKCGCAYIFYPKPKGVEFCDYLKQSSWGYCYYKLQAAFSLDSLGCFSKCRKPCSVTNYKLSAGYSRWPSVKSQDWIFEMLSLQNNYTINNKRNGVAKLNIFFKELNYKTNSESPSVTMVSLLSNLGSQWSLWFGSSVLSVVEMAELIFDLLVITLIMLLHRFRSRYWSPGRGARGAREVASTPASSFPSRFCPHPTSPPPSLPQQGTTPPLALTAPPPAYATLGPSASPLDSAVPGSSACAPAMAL
T1 sequence (Q9WU38 1-638): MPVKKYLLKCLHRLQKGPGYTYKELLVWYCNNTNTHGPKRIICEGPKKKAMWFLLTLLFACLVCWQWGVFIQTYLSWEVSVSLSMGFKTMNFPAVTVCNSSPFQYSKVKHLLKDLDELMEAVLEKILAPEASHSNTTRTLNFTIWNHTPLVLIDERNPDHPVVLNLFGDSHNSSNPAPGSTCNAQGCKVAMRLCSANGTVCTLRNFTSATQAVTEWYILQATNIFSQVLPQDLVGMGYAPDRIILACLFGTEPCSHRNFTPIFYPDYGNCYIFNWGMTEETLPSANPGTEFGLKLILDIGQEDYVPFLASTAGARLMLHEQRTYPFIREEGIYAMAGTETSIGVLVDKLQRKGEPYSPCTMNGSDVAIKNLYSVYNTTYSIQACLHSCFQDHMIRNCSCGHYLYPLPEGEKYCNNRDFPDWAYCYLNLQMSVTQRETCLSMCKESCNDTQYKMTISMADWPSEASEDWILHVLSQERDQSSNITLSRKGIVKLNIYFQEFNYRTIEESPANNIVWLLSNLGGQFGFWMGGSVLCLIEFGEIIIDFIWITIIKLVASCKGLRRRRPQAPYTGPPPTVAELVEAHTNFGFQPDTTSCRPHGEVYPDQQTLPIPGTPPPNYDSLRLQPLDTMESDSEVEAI
T1 sequence (Q9WU39 1-655): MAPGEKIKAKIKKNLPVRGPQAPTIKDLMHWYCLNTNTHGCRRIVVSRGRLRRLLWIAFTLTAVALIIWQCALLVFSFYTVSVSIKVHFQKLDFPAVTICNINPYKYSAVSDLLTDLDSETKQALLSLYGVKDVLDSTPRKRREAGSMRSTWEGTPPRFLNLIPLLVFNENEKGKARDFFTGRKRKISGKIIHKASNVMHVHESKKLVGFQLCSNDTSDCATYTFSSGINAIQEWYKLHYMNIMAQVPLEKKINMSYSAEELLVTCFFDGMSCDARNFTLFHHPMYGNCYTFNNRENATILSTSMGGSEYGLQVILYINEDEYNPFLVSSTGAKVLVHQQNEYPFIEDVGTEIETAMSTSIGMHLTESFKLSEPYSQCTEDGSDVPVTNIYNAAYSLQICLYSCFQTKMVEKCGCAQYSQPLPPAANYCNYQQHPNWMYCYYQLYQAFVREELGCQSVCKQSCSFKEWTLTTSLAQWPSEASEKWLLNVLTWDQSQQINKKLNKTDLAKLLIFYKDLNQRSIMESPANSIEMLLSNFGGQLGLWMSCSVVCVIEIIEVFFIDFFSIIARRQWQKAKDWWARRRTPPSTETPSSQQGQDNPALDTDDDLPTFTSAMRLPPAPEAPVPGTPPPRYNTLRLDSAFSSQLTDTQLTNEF
Experiment: Single channel cell-attached patch clamp in oocytes expressing wild-type ENaC, pipette back filled with peptide
Format: cell-based
Protocol: Single Channel Studies—Bath and pipette solutions contained (in mM) 110 LiCl, 2 CaCl2, 2 KCl, and 10 Hepes, pH 7.4. Experiments were performed as previously described (Carattino, M. D., Sheng, S., and Kleyman, T. R. (2005), Mutations in the pore region modify epithelial sodium channel gating by shear stress, J Biol. Chem. 280, 4393-4401 33). Single channel currents were recorded in the cell-attached configuration of patch clamp, acquired at 5 kHz and filtered at 1 kHz by a 4-pole low pass Bessel filter. Single channel currents were further filtered at 100-200 Hz with a Gaussian filter for display and analysis. Recordings were performed at an applied pipette potential of +60 mV.
For experiments performed with α-26, the tip of the pipette was filled with standard patch solution. Pipette resistances were similar in control (7.8±0.4 MΩ) and α-26-treated patches (6.9±0.6 MΩ) (p=0.30, unpaired t test). […] Unitary currents, at an applied pipette potential of +60 mV, were similar in both control (0.42±0.2 pA, n=5) and α-26-containing patches (0.39±0.2 pA, n=7) (p=0.32, unpaired t test). […] At the beginning of the experiment open times were similar to that observed in controls (FIG. 4B). Over the course of the experiment openings decreased and were shorter in duration compared with control until channels were fully closed. […]

Ac-DLRGALPHPLQRLRTPPPPNPARSAR-NH2 [α-26]
unitary currents (applied pipette potential +60 mV, α-26 10 μM in pipette): 0.39±0.2 pA
product of the number of channels and open probability (NPo) compared with controls (pipette backfilled with α-26 10 μM): reduces ENaC open probability; also recorded: reduction
